{
  "source": "patent US9776992B2",
  "about": "“1-oxo-1,2-dihydroisoquinolin-7-yl-(5-substituted-thiophen-2-yl)-sulfonamide compounds, formulations containing those compounds, and their use as AICARFT inhibitors in the treatment of cancers” (Eli Lilly and Company, priority 2014, dated 2017)",
  "key": {"[1]": {"tested_on": "large cell lung cancer NCI-H460", "assay": "Low folate in vitro proliferation assay, NCI-H460", "type": "cell-based", "conditions": "Homo sapiens, 168 h; NCI-H460, low folate media, 7 days", "text": "(§1) Allow cells to attach overnight. […] Final concentration of compounds will be 1×. […] Dose cells with compounds of interest for 7 days. […] Determine % inhibition for each sample (see Table 18)."}, "[2]": {"tested_on": "colorectal carcinoma HCT-116", "assay": "Low folate in vitro proliferation assay, HCT-116", "type": "cell-based", "conditions": "Homo sapiens, 168 h; HCT-116, low folate media, 7 days", "text": "as §1"}, "[3]": {"tested_on": "human lung carcinoma NCI-H460 mouse xenograft", "assay": "Antitumor efficacy in NCI-H460 mouse xenograft tumor model", "type": "in vivo", "conditions": "for % T/C: NCI-H460 xenograft, no folic acid, Day 20, Delta T/C, * = P<0.05", "description": "In vivo studies are performed using female athymic nude mice (Harlan) with a bodyweight of 23-28 g at first measurement. Upon receipt and throughout the study, the animals are housed 5 animals per cage in appropriately sized solid-bottom cages with contact bedding. The animal room is maintained on a 12-hour light/dark cycle. Animals are acclimated for 14 days prior to implantation of the NCI-H460 or HCT-116 cells on low folate diet (Teklad 130451) ad libitum and autoclaved tap water is provided ad libitum. The HCT-116 and NCI-H460 cell line are obtained from American Type Culture Collection (ATCC) and is cultured following ATCC instructions. Cells used for implantation are harvested during log phase growth and suspended in serum-free media. The suspended cells are then diluted 1:1 with BD Matrigel Matrix (ref 354234). Cells are injected in the right flank with 5.0E+06 cells (0.2 mL cell/Matrigel suspension). Tumors are monitored beginning day 8 post implant. Animals are redistributed into groups with 5-6 animals per group utilizing proprietary randomization software when average tumor volume reaches 200 mm^3. Groups 1-12 are maintained on a low folate diet (Teklad 130451) and folic acid (Sigma F8798 Lot #SLBH0909V) administration at doses listed in the Table 19 began 28 hours prior to dose initiation and 4 hours prior to each dose. […] Tumor volume and body weight are measured 2× a week. Tumor volume is determined by caliper measurements (mm) and using the formula for an ellipsoid sphere: tumor volume (mm^3)=length×width^2/2, where length and width refer to the larger and smaller perpendicular dimensions collected at each measurement. The animal behavior and animal health are monitored daily during dosing period.\nThe statistical analysis of the tumor volume data begins with a data transformation to a log scale to equalize variance across time and treatment groups. The log volume data are analyzed with a two-way repeated measures analysis of variance by time and treatment using the MIXED procedures in SAS software (Version 9.3). […]"}, "[4]": {"tested_on": "human colorectal adenocarcinoma cell line HCT-116 mouse xenograft", "assay": "Antitumor efficacy in HCT-116 mouse xenograft tumor model", "type": "in vivo", "conditions": "for % T/C: HCT-116 xenograft, Day 23, Delta T/C, * = P<0.05", "description": "(§2) In vivo studies are performed using female athymic nude mice (Harlan) with a bodyweight of 23-28 g at first measurement. Upon receipt and throughout the study, the animals are housed 5 animals per cage in appropriately sized solid-bottom cages with contact bedding. The animal room is maintained on a 12-hour light/dark cycle. Animals are acclimated for 14 days prior to implantation of the NCI-H460 or HCT-116 cells on low folate diet (Teklad 130451) ad libitum and autoclaved tap water is provided ad libitum. The HCT-116 and NCI-H460 cell line are obtained from American Type Culture Collection (ATCC) and is cultured following ATCC instructions. Cells used for implantation are harvested during log phase growth and suspended in serum-free media. The suspended cells are then diluted 1:1 with BD Matrigel Matrix (ref 354234). Cells are injected in the right flank with 5.0E+06 cells (0.2 mL cell/Matrigel suspension). Tumors are monitored beginning day 8 post implant. Animals are redistributed into groups with 5-6 animals per group utilizing proprietary randomization software when average tumor volume reaches 200 mm^3. Groups 1-12 are maintained on a low folate diet (Teklad 130451) and folic acid (Sigma F8798 Lot #SLBH0909V) administration at doses listed in the Table 19 began 28 hours prior to dose initiation and 4 hours prior to each dose. Folic acid is formulated weekly in PBS and dosed via oral gavage at 0.2 mL. Groups 13-16 are placed on standard chow (Teklad 2920X) at randomization. The compound is formulated weekly in 20% HPBCD in Phosphate buffer pH 8 with one molar equivalent NaOH added. The formulated compound is administered at the doses and schedules indicated in Table 19 by oral gavage (0.2 mL). The vehicle is also given QD as the control arm of the study. Tumor volume and body weight are measured 2× a week. Tumor volume is determined by caliper measurements (mm) and using the formula for an ellipsoid sphere: tumor volume (mm^3)=length×width^2/2, where length and width refer to the larger and smaller perpendicular dimensions collected at each measurement. The animal behavior and animal health are monitored daily during dosing period.\nThe statistical analysis of the tumor volume data begins with a data transformation to a log scale to equalize variance across time and treatment groups. The log volume data are analyzed with a two-way repeated measures analysis of variance by time and treatment using the MIXED procedures in SAS software (Version 9.3). The correlation model for the repeated measures is Spatial Power. Treated groups are compared to the control group at each time point. The MIXED procedure is also used separately for each treatment group to calculate adjusted means and standard errors at each time point. Both analyses account for the autocorrelation within each animal and the loss of data that occurs when animals with large tumors are removed from the study early. The adjusted means and standard errors are plotted for each treatment group vs time. The analysis comparing the treated groups to the control groups at each time point uses the log 10 tumor volumes and produces the p-values. For statistical significance of p-values shown, “*”=P<0.05.\nDelta T/C, % calculation is used. Equations: T=Final tumor volume in treated group; T0=Baseline tumor volume in treated group (assumed to be same as C0); C=Final tumor volume in control group; C0=Baseline tumor volume in control group (assumed to be same as T0); Delta T/C, %=100*(T−T0)/(C−C0)"}, "AICARFT": {"tested_on": "AICARFT", "assay": "AICARFT in vivo target inhibition (IVTI) assay in mouse plasma (AICAr)", "description": "as §2\nThe in vivo effects of AICARFT inhibition on the circulating concentration of AICAr is determined by liquid chromatography-mass spectrometry (LC-MS). Standard curves containing AICAr at concentrations of 1 ng/mL-2000 ng/mL are prepared in 40 mM ammonium acetate, pH 4. Plasma samples (75 μL) or standards (75 μL) are combined with 300 μL of an internal standard solution containing 13C5-AICAr (20 ng/mL) and formic acid (1%) in ACN. The samples are vortex mixed for 5 minutes and passed through a Phenomenex Phree 96-well phospholipid removal SPE plate. The eluents are collected in a 96-well plate and dried under heated nitrogen at 50° C. Each sample is reconstituted in 50 μL of 40 mM ammonium acetate, pH 4. The plates are sealed and vortexed for 5 minutes prior to analysis. The LC-MS method utilized a Shimadzu Prominence 20A HPLC system connected to an AB Sciex 5500™ or an AB Sciex 6500™ triple quadrupole mass spectrometer running Analyst® software. Extracted samples are separated using two Thermo Hypercarb™ Javelin guard columns (2.1×20 mm, 5 μm) connected in series with an injection volume of 15 μL and a flow rate of 1 mL/minute. Mobile phase A is a 95:5 mixture of 50 mM ammonium formate, pH 4 and ACN. Mobile phase B is a 70:30 mixture of ACN and MeOH spiked with 0.3% formic acid and 2% concentrated ammonium hydroxide solution (v/v). For mouse plasma samples the following gradient is used: 0 minutes, 0% B; 0.25 minutes, 0% B; 2.00 minutes, 25% B; 2.01 minutes, 95% B; 3.50 minutes, 95% B; 3.51 minutes, 0% B; 4.50 minutes, stop. For dog plasma samples the following gradient is used to remove endogenous interferences: 0 minutes, 0% B; 0.25 minutes, 0% B; 5.99 minutes, 20% B; 6.00 minutes, 95% B; 8.00 minutes, 95% B; 8.01 minutes, 0% B; 10.00 minutes, stop. […]"}},
  "data": [
    {"compound": "O=c1[nH]ccc2cc(F)c(NS(=O)(=O)c3ccc(N4CC[C@@H](O)C4)s3)cc12", "note": "[Example 1, N-(6-Fluoro-1-oxo-1,2-dihydroisoquinolin-7-yl)-5-[(3R)-3-hydroxypyrrolidin-1-yl]thiophene-2-sulfonamide]", "values": [
      {"measurement": "IC50", "setting": "[1]", "result": 20, "unit": "nM"},
      {"measurement": "IC50", "setting": "[2]", "result": 3, "unit": "nM"},
      {"measurement": "in vivo anticancer activity (in words)", "setting": "[3]; NCI-H460 xenograft tumors, QD continuously for 2 weeks", "result": "demonstrates in vivo anticancer activity"},
      {"measurement": "% T/C", "setting": "[3]; Group 14, standard chow, 10 mg/kg QD × 13, orally", "result": 113, "unit": "%"},
      {"measurement": "% T/C", "setting": "[3]; Group 15, standard chow, 30 mg/kg QD × 13, orally", "result": "42* %"},
      {"measurement": "in vivo anticancer activity (in words)", "setting": "[4]; HCT-116 xenograft tumors, QD continuously for 2 weeks", "result": "demonstrates in vivo anticancer activity"},
      {"measurement": "% T/C", "setting": "[4]; Group 6, low folate diet, folic acid 0.75 mg/kg (QD × 15, orally), 10 mg/kg QD × 14, orally", "result": "65* %"},
      {"measurement": "% T/C", "setting": "[4]; Group 7, low folate diet, folic acid 0.75 mg/kg (QD × 15, orally), 30 mg/kg QD × 14, orally", "result": "57* %"},
      {"measurement": "% T/C", "setting": "[4]; Group 14, standard chow, no folic acid, 10 mg/kg QD × 14, orally", "result": 112, "unit": "%"},
      {"measurement": "% T/C", "setting": "[4]; Group 15, standard chow, no folic acid, 30 mg/kg QD × 14, orally", "result": 49, "unit": "%"},
      {"measurement": "Mean Plasma AICAr", "setting": "AICARFT; HCT-116 xenograft mice, Group 6, low folate diet, folic acid 0.75 mg/kg (QD × 15, orally), 10 mg/kg QD × 14, orally, Day 23", "result": 88, "unit": "nM"},
      {"measurement": "Mean Plasma AICAr", "setting": "AICARFT; HCT-116 xenograft mice, Group 7, low folate diet, folic acid 0.75 mg/kg (QD × 15, orally), 30 mg/kg QD × 14, orally, Day 23", "result": 181, "unit": "nM"},
      {"measurement": "Mean Plasma AICAr", "setting": "AICARFT; HCT-116 xenograft mice, Group 14, standard chow, no folic acid, 10 mg/kg QD × 14, orally, Day 23", "result": 44, "unit": "nM"},
      {"measurement": "Mean Plasma AICAr", "setting": "AICARFT; HCT-116 xenograft mice, Group 15, standard chow, no folic acid, 30 mg/kg QD × 14, orally, Day 23", "result": 154, "unit": "nM"},
      {"measurement": "Mean Plasma AICAr", "setting": "AICARFT; NCI-H460 xenograft mice, Group 14, standard chow, no folic acid, 10 mg/kg QD × 13, orally, Day 20", "result": 368, "unit": "nM"},
      {"measurement": "Mean Plasma AICAr", "setting": "AICARFT; NCI-H460 xenograft mice, Group 15, standard chow, no folic acid, 30 mg/kg QD × 13, orally, Day 20", "result": 1400, "unit": "nM"}
    ]}
  ]
}
